For four substances, Kd and kon results are on record in article PMC6899342 (PeerJ, 2019).

Where no end group is shown, it is not given here.

This assay has as its target T1, PCV2 Cap protein (Porcine circovirus 2, UniProt O56129).
T1 construct: made in house; host or cells: E. coli BL21 (pET28a-Cap)
The assay is described as follows: biochemical. Type of assay: binding, porcine circovirus type II. To be noted: for kon: pH 7.4, read-out: ka. On the procedure: The equilibrium binding constant (KD) of peptides was determined using an Open SPR instrument (Nicoya, Canada). First, purified Cap protein was covalently immobilized on a carboxyl Au colloidal nanoparticles chip. […] Then, all peptides were respectively dissolved in PBS at predetermined concentrations and injected to detect the resonance signal changes. In each cycle, 300 µL of peptide solution was injected into the flow cell of the Cap chip for 5 min. Finally, the data were assessed to determine the association constant (ka, 1/Ms), the dissociation constant (kd, 1/s), the equilibrium binding constant (KD, M), and KD = kd/ka via Trace Drawer 1.7 (Nicoya, Canada).
All the steps were performed according to manufacturer’s instructions. First, the activation of carboxyl chip: the chip is activated by the EDC/NHS reagent in the amine coupling kit. […] The last step is to block the chip with blocking buffer. In every step, The 300 μL sample was flowed through the chip for 5 min at a constant flow rate of 20 μL/min.
Dissociation constant Kd represents the ratio of AB (ie, AB) dissociated in unit time to the initial AB before dissociation, which represents the speed of the dissociation reaction.Equilibrium dissociation constant KD =kd/ka, KD unit is M (mol/L)
1:1 binding interaction model represents the binding mode of ligand and target according to 1:1. The1:1 binding interaction model is a differential equation:
dY/dt = (k a * c - k d )* Y

T1 sequence (O56129 whole entry): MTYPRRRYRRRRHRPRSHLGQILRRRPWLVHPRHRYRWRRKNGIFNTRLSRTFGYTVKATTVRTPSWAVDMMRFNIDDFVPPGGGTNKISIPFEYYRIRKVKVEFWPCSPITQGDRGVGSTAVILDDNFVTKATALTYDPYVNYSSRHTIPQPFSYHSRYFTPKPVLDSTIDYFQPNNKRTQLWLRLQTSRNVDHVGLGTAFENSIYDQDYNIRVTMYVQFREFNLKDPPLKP

Broadly, the Kd is a measure of binding affinity in units of concentration. Low readings indicate tighter binding, high ones weaker binding. With WQSWEWTG [Peptide L9], the affinity, expressed as Kd, was 6.71 µM and the kon was determined as 855 M⁻¹ s⁻¹.
On to RKHKRWK [Peptide L7], for which the Kd amounted to 1.06 µM and the kon turned out to be 856 M⁻¹ s⁻¹.
For the substance WQGMMKEE [Peptide L4], the Kd turned out to be 1.23 µM and the kon was 1920 M⁻¹ s⁻¹.
On to KWWQSWEW [Peptide L13], for which the Kd worked out at 9.97 µM and the kon is 335 M⁻¹ s⁻¹.
